# Measurements as given in patent US20120010229A1, “THERAPEUTIC REGIMENS FOR HEDGEHOG-ASSOCIATED CANCERS” (priority 2010, published 2012).
# Columns and labels:
# Phase 1 clinical trial = format: in vivo
# Pgp/ABCB1 and BCRP = conditions: mouse, not told
# H1650 xenograft = assay: H1650 mutant EGFR non-small cell lung cancer xenograft, post Gefitinib; format: in vivo
# Description: The efficacy of IPI-926 was evaluated when applied as a maintenance therapy following treatment of a xenograft non-small cell lung cancer model with a tyrosine kinase inhibitor. […] Sonic hedgehog ligand is detected by immunohistochemical staining (IHC) of sections of non-small cell lung cancer (FIG. 8A).
# [1] = test system: LX22 primary small cell lung tumor; assay: LX22 primary small cell lung cancer xenograft, post etoposide/carboplatin; format: in vivo, mice
# Description: FIG. 1 is a series of line graphs showing the effect in tumor size (mm^3) as a function of days of treatment of mice having an LX22 primary small cell lung tumor with IPI-926 alone (“IPI-926”), etoposide/carboplatin followed by vehicle control (“E/P→Vehicle”), E/P followed by IPI-926 (“E/P→IPI-926”) and vehicle control. Mice were treated for 5 weeks total with IPI-926 follow-up treatment at 40 mg/kg PO QD.
# Briefly, LX22 primary small cell lung model was treated with 1.5 cycles of etoposide/carboplatin (E/P). Administration of IPI-926 was initiated 24 hours after the last dose of chemotherapy. In the normal course of these studies, IPI-926 was administered […].
# The effect of delaying the onset of IPI-926 administration following chemotherapy was further characterized. […] FIG. 2 is a linear graph depicting the effect in tumor size as a function of time of chemotherapy treatment and following with IPI-926 treatment on day 5 (D5) and day 15 (D15) following chemotherapy treatment. Thus, a narrow window of intervention is necessary to maximize the beneficial effects of IPI-926 in tumor inhibition following chemotherapy.
# [2] = test system: human cell lines derived from patients with cancer; conditions: pancreatic cancer, medulloblastoma, lung cancer, multiple myeloma, leukemia, lymphoma lines; cited from earlier work
# [3] = test system: Ptc^C/C medulloblastoma flank allografts; assay: Ptc^C/C medulloblastoma flank allografts (tumor take and response); format: in vivo, mouse
# Description: Animal experiments were performed in accordance with the NIH Guide for the Care and Use of Experimental Animals with approval from the Institutional Animal Care and Use Committee. Freshly excised medulloblastoma tumors from symptomatic Ptc^C/C mice were placed in cooled phosphate buffered saline (PBS), minced with a scalpel, and filtered through a 100 μm cell strainer (BD Bioscience, San Jose, Calif.). The cells were pelleted at 1000 rpm for 5 minutes at 4° C., and resuspended in equal parts DMEM and Matrigel (BD Biosciences, San Diego, Calif.). Recipient mice (wild type littermates) were anesthetized with isoflurane and a suspension of 1×10^6 cells in total volume of 200 μL was injected subcutaneously into the flank using a 30G needle. Tumor growth was measured in two dimensions using digital calipers every 24-48 hours, and the tumor volumes were calculated according to the following formula: 0.5×length×width^2, with width being the smaller of the two dimensions measured. Tumors greater than 2.5 cm in length were harvested and either snap-frozen or fixed in 10% formalin.
# To confirm this, aliquots of 1 million cells from the cerebellar tumors of 9 donor Ptc^C/C mice were transplanted to the flanks of 110 recipients.
# Recipient mice bearing drug-naïve and IPI-926 treated allograft tumors were then treated with daily IPI-926 (20 mg/kg) and tumor growth was monitored via caliper measurements. […] When tumor volumes reached […], recipient mice then received either daily IPI-926 (20 mg/kg) or vehicle treatment, and the growth of flank allografts was monitored over a nine-week period. […] Half of the allograft mice from drug-treated donors were taken off drug after five weeks of IPI-926 treatment, and the other half received continuous IPI-926 for the nine-week study period. Mice from both groups were monitored for the entire 9-week period.
# [4] = test system: KPC mice pancreatic tumors; conditions: combination of IPI-926 and Gemcitabine; cited from earlier work
# D473H SMO mutant = biological target: T1, D473H SMO mutant (Homo sapiens, UniProt Q99835, D473H); assay: Gli-luciferase reporter assay, C3H10T1/2 cells transfected with D473H SMO; format: cell-based, mouse
# T1 construct: expressed in transfected cells; host or cells: C3H10T1/2 cells (ATCC CCL-226), mouse
# T1 sequence (Q99835 28-787 D473H): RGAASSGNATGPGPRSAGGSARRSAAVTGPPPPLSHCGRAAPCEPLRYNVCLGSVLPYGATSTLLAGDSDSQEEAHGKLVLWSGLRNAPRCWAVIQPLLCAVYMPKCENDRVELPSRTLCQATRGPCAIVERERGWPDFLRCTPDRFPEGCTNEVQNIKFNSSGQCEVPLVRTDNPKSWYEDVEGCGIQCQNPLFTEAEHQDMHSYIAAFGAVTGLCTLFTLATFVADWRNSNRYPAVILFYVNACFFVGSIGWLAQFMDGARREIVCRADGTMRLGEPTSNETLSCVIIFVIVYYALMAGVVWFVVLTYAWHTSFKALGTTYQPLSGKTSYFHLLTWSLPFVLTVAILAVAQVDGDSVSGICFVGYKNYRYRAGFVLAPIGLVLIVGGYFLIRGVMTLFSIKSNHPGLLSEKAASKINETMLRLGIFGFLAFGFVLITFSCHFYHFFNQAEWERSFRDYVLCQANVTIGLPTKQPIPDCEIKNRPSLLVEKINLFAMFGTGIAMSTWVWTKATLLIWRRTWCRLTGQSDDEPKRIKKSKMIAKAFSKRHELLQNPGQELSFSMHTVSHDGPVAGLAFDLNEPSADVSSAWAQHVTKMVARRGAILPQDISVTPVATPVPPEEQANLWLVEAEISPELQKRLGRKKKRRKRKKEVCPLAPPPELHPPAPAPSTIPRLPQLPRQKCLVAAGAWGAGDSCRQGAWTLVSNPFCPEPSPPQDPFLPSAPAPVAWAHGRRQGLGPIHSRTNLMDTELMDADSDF
# Description: Wild type human SMO was subcloned into pcDNA3.1 from an expression construct in pCMV6 (Origene #SC122724). D473H SMO was then generated by site-directed mutagenesis using the Stratagene QuikChange kit (Agilent #200519) and sequence verified.
# Gli-Luciferase reporter assays were performed as described. (Yauch et al. (2009) Science 326: 572-574) Briefly, C3H10 T1/2 cells (ATCC, #CCL-226) were plated in six-well plates at 1×10 to 5th cells per well in BME (Gibco #21010) with 10% FBS (Hyclone #SH30070.03), 2 mM Glutamine (Gibco #25030) and 50 units penicillin/50 ug streptomycin (Gibco #15140). The next morning, cells were transfected with 400 ng SMO expression construct, 400 ng 8× Gli-Luc, and 200 ng pRL-TK per well with GeneJuice transfection reagent (Novagen #70967). Cells in each well were lifted six hours later and replated into four wells of a 12 well plate and allowed to attach overnight. Medium was then changed to low (0.5%) serum and compounds were added in quadruplicate in a range of concentrations. After a 48 hour incubation, firefly and renilla luciferase were assayed using the Promega Dual-Glo Luciferase Assay System (Promega #E2940) and ratios were used to determine percent of control using Prism graphing software.
compound,measurement,setting,value
CC1=C2C[C@H]3[C@@H](CC[C@@H]4C[C@H](NS(C)(=O)=O)CC[C@@]43C)[C@@H]2CC[C@@]2(C1)O[C@@H]1C[C@H](C)CN[C@H]1[C@H]2C [IPI-926],clinical activity,Phase 1 clinical trial,demonstrated clinical activity
same,tolerability,Phase 1 clinical trial,well-tolerated
same,Pgp protein expression (IHC),Pgp/ABCB1 and BCRP,focal increases in Pgp
same,expression level of BCRP (Western blot),Pgp/ABCB1 and BCRP,not significantly increased
same,expression level of Pgp (Western blot),Pgp/ABCB1 and BCRP,not significantly increased
same,tumor volume after cessation of Gefitinib,H1650 xenograft; Gefitinib 40 mg/kg orally one week followed by IPI-926 once a day for three weeks,prolonged duration of the tumor inhibition
same,mGLI-1 mRNA expression in lung tumor samples,H1650 xenograft; IPI-926 in combination with Gefitinib,inhibit mGLI-1 mRNA expression
same,tumor re-growth following cyto-reductive chemotherapy,"[1]; E/P then IPI-926 40 mg/kg PO QD, started 24 hours after last chemotherapy dose",inhibitory effect on the re-growth of tumors
same,tumor growth inhibition with delayed onset of administration,[1]; IPI-926 administration delayed by 5 or 14 days after chemotherapy,loss of the IPI-926 effect in tumor growth inhibition
same,expression of stromal marker murine Gli-1,"[1]; tumors after chemotherapy, vs vehicle-treated",inhibited
same,in vitro growth of human cancer cell lines,[2],inhibit in vitro growth
same,tumor re-growth on continuous IPI-926,"[3]; allografts from drug-treated donors, continuous IPI-926 for nine weeks",no tumors re-grew
same,tumors that re-grew after going off drug,"[3]; allografts from drug-treated donors, off drug after five weeks, monitored 9 weeks",1 of 6
same,allograft tumors undetectable by caliper measurements,"[3]; daily IP 20 mg/kg, both allograft groups (drug-naive and IPI-926 treated donors)",100%
same,flank tumor take in recipients (tumor initiating capacity),"[3]; donors treated daily 20 mg/kg for 6 weeks before transplantation, drug-naive donors 40 of the 110, P=0.017",9 of 51
same,tumors that progressed while on therapy,"[3]; flank allografts from drug-naive donors, 9-week trial",Forty percent
same,intratumoral vascular density and gemcitabine concentration,[4],transient increase in intratumoral vascular density and intratumoral concentration of gemcitabine
same,IC50,D473H SMO mutant,244 nM
